Data reported in patent publication US20230085307A1, “PYRIDAZINONE COMPOUND AND HERBICIDE” (NISSAN CHEMICAL CORPORATION, priority 2019, published 2023).

Assays:
[1] = tested on: barnyard grass; assay: Test Example 5: herbicidal effect by foliage application, plastic box (Table 20, symbol H); assay type: in vivo, barnyard grass (Echinochloa crus-galli); conditions: evaluated three weeks after application
Procedure, shortened: (§1)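 Plants sown in sterilized diluvial soil and grown 14 days in a greenhouse at 25° C to 30° C, then sprayed on the foliage with the compound's emulsion diluted in water to a predetermined herbicide amount. Injury to weeds and crops scored three weeks after application on a visual rating scale.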

[2] = tested on: barnyard grass; assay: Test Example 3: herbicidal effect by foliage application, Wagner pot (Table 18, symbol H); assay type: in vivo, barnyard grass (Echinochloa crus-galli)
Procedure, shortened: (§2)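 Plants were sown in alluvial soil held under 0.1–0.5 cm standing water and grown 14 days in a greenhouse at 25–30 °C. An emulsifiable formulation, water-diluted to the set dose, was then sprayed onto the foliage, and effects were scored three weeks later using previously defined criteria.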

[3] = tested on: wild oat; assay: Test Example 5: herbicidal effect by foliage application, plastic box (Table 20, symbol I); assay type: in vivo, wild oat (Avena fatua); conditions: evaluated three weeks after application
Procedure, shortened: as §1

[4] = tested on: rice flat sedge; assay: Test Example 3: herbicidal effect by foliage application, Wagner pot (Table 18, symbol E); assay type: in vivo, rice flat sedge (Cyperus iria)
Procedure, shortened: as §2

[5] = tested on: persian speedwell; assay: Test Example 5: herbicidal effect by foliage application, plastic box (Table 20, symbol R); assay type: in vivo, Persian speedwell (Veronica persica); conditions: evaluated three weeks after application
Procedure, shortened: as §1

[6] = tested on: southern crabgrass; assay: Test Example 5: herbicidal effect by foliage application, plastic box (Table 20, symbol F); assay type: in vivo, southern crabgrass (Digitaria ciliaris); conditions: evaluated three weeks after application
Procedure, shortened: as §1

[7] = tested on: Italian ryegrass; assay: Test Example 5: herbicidal effect by foliage application, plastic box (Table 20, symbol K); assay type: in vivo, Italian ryegrass (Lolium multiflorum); conditions: evaluated three weeks after application
Procedure, shortened: as §1

[8] = tested on: Chinese sprangletop; assay: Test Example 3: herbicidal effect by foliage application, Wagner pot (Table 18, symbol D); assay type: in vivo, chinese sprangletop (Leptochloa chinensis)
Procedure, shortened: as §2

[9] = tested on: blackgrass; assay: Test Example 5: herbicidal effect by foliage application, plastic box (Table 20, symbol J); assay type: in vivo, blackgrass (Alopecurus myosuroides); conditions: evaluated three weeks after application
Procedure, shortened: as §1

[10] = tested on: velvetleaf; assay: Test Example 5: herbicidal effect by foliage application, plastic box (Table 20, symbol M); assay type: in vivo, velvetleaf (Abutilon theophrasti); conditions: evaluated three weeks after application
Procedure, shortened: as §1

[11] = tested on: southern crabgrass; assay: Test Example 4: herbicidal effect by soil treatment (Table 19, symbol F); assay type: in vivo, southern crabgrass (Digitaria ciliaris)
Procedure, shortened: (§3)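 Three weeks of greenhouse growth at 25° C. to 30° C. followed a uniform surface spray of water-diluted emulsion at a predetermined herbicide amount. Seeds had been sown beforehand under about 1.5 cm of sterilized diluvial soil. Grading followed criteria set out in an earlier test.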

[12] = tested on: windgrass; assay: Test Example 4: herbicidal effect by soil treatment (Table 19, symbol L); assay type: in vivo, windgrass (Apera spica-venti)
Procedure, shortened: as §3

[13] = tested on: chickweed; assay: Test Example 5: herbicidal effect by foliage application, plastic box (Table 20, symbol P); assay type: in vivo, common chickweed (Stellaria media); conditions: evaluated three weeks after application
Procedure, shortened: as §1

[14] = tested on: lambsquarters; assay: Test Example 4: herbicidal effect by soil treatment (Table 19, symbol O); assay type: in vivo, lambsquarters (Chenopodium album)
Procedure, shortened: as §3

[15] = tested on: Italian ryegrass; assay: Test Example 4: herbicidal effect by soil treatment (Table 19, symbol K); assay type: in vivo, Italian ryegrass (Lolium multiflorum)
Procedure, shortened: as §3

[16] = tested on: wild oat; assay: Test Example 4: herbicidal effect by soil treatment (Table 19, symbol I); assay type: in vivo, wild oat (Avena fatua)
Procedure, shortened: as §3

[17] = tested on: blackgrass; assay: Test Example 4: herbicidal effect by soil treatment (Table 19, symbol J); assay type: in vivo, blackgrass (Alopecurus myosuroides)
Procedure, shortened: as §3

[18] = tested on: green foxtail; assay: Test Example 5: herbicidal effect by foliage application, plastic box (Table 20, symbol G); assay type: in vivo, green foxtail (Setaria viridis); conditions: evaluated three weeks after application
Procedure, shortened: as §1

[19] = tested on: barnyard grass; assay: Test Example 4: herbicidal effect by soil treatment (Table 19, symbol H); assay type: in vivo, barnyard grass (Echinochloa crus-galli)
Procedure, shortened: as §3

[20] = tested on: redroot pigweed; assay: Test Example 5: herbicidal effect by foliage application, plastic box (Table 20, symbol N); assay type: in vivo, redroot pigweed (Amaranthus retroflexus); conditions: evaluated three weeks after application
Procedure, shortened: as §1

[21] = tested on: windgrass; assay: Test Example 5: herbicidal effect by foliage application, plastic box (Table 20, symbol L); assay type: in vivo, windgrass (Apera spica-venti); conditions: foliage application, 320 g/ha, evaluated three weeks after application
Procedure, shortened: as §1

[22] = tested on: persian speedwell; assay: Test Example 4: herbicidal effect by soil treatment (Table 19, symbol R); assay type: in vivo, Persian speedwell (Veronica persica)
Procedure, shortened: as §3

[23] = tested on: velvetleaf; assay: Test Example 4: herbicidal effect by soil treatment (Table 19, symbol M); assay type: in vivo, velvetleaf (Abutilon theophrasti)
Procedure, shortened: as §3

[24] = tested on: redroot pigweed; assay: Test Example 4: herbicidal effect by soil treatment (Table 19, symbol N); assay type: in vivo, redroot pigweed (Amaranthus retroflexus)
Procedure, shortened: as §3

[25] = tested on: green foxtail; assay: Test Example 4: herbicidal effect by soil treatment (Table 19, symbol G); assay type: in vivo, green foxtail (Setaria viridis)
Procedure, shortened: as §3

[26] = tested on: lambsquarters; assay: Test Example 5: herbicidal effect by foliage application, plastic box (Table 20, symbol O); assay type: in vivo, lambsquarters (Chenopodium album); conditions: foliage application, 320 g/ha, evaluated three weeks after application
Procedure, shortened: as §1

[27] = tested on: chickweed; assay: Test Example 4: herbicidal effect by soil treatment (Table 19, symbol P); assay type: in vivo, common chickweed (Stellaria media); conditions: amount of applied herbicide 272 g/ha
Procedure, shortened: as §3

[28] = amount of applied herbicide 320 g/ha
[29] = amount of applied herbicide 272 g/ha, foliage application after 14-day growth
[30] = amount of applied herbicide 272 g/ha

## CCCC(=O)Oc1c(C)nn(C)c(=O)c1-c1c(-c2cccc(OC(C)C)c2)sc2ccc(F)cc12 [2-216]
[1]; foliage application, 320 g/ha
  herbicidal effect on H: barnyard grass (criteria 0-5): 4 (Herbicidal rate of 70% or more and less than 90%)
[2]; [28]
  herbicidal effect on H: barnyard grass: 5 (Herbicidal rate of 90% or more (almost completely withered))
[3]; foliage application, 320 g/ha
  herbicidal effect on I: wild oat (criteria 0-5): 0 (Herbicidal rate of 5% or less (almost no effect))
[4]; [28]
  herbicidal effect on E: rice flat sedge: 4 (Herbicidal rate of 70% or more and less than 90%)
[5]; foliage application, 320 g/ha
  herbicidal effect on R: persian speedwell (criteria 0-5): 5 (Herbicidal rate of 90% or more (almost completely withered))
[6]; foliage application, 320 g/ha
  herbicidal effect on F: southern crabgrass (criteria 0-5): 5 (Herbicidal rate of 90% or more (almost completely withered))
[7]; foliage application, 320 g/ha
  herbicidal effect on K: Italian ryegrass (criteria 0-5): 4 (Herbicidal rate of 70% or more and less than 90%)
[8]; [28]
  herbicidal effect on D: Chinese sprangletop: 3 (Herbicidal rate of 40% or more and less than 70%)
[9]; foliage application, 320 g/ha
  herbicidal effect on J: blackgrass (criteria 0-5): 0 (Herbicidal rate of 5% or less (almost no effect))
[10]; foliage application, 320 g/ha
  herbicidal effect on M: velvetleaf (criteria 0-5): 3 (Herbicidal rate of 40% or more and less than 70%)
[11]; [28]
  F: southern crabgrass, herbicidal effect rating: 3 (Herbicidal rate of 40% or more and less than 70%)
[12]; [28]
  L: windgrass, herbicidal effect rating: 0 (Herbicidal rate of 5% or less (almost no effect))
[13]; foliage application, 320 g/ha
  herbicidal effect on P: chickweed (criteria 0-5): 5 (Herbicidal rate of 90% or more (almost completely withered))
[14]; [28]
  O: lambsquarters, herbicidal effect rating: 0 (Herbicidal rate of 5% or less (almost no effect))
[15]; [28]
  K: Italian ryegrass, herbicidal effect rating: 4 (Herbicidal rate of 70% or more and less than 90%)
[16]; [28]
  I: wild oat, herbicidal effect rating: 0 (Herbicidal rate of 5% or less (almost no effect))
[17]; [28]
  J: blackgrass, herbicidal effect rating: 0 (Herbicidal rate of 5% or less (almost no effect))
[18]; foliage application, 320 g/ha
  herbicidal effect on G: green foxtail (criteria 0-5): 5 (Herbicidal rate of 90% or more (almost completely withered))
[19]; [28]
  H: barnyard grass, herbicidal effect rating: 2 (Herbicidal rate of 20% or more and less than 40%)
[20]; foliage application, 320 g/ha
  herbicidal effect on N: redroot pigweed (criteria 0-5): 5 (Herbicidal rate of 90% or more (almost completely withered))
[21]
  herbicidal effect on L: windgrass (criteria 0-5): 3 (Herbicidal rate of 40% or more and less than 70%)
[22]; [28]
  R: persian speedwell, herbicidal effect rating: 5 (Herbicidal rate of 90% or more (almost completely withered))
[23]; [28]
  M: velvetleaf, herbicidal effect rating: 2 (Herbicidal rate of 20% or more and less than 40%)
[24]; [28]
  N: redroot pigweed, herbicidal effect rating: 3 (Herbicidal rate of 40% or more and less than 70%)
[25]; [28]
  G: green foxtail, herbicidal effect rating: 2 (Herbicidal rate of 20% or more and less than 40%)
[26]
  herbicidal effect on O: lambsquarters (criteria 0-5): 3 (Herbicidal rate of 40% or more and less than 70%)

## CCCC(=O)Oc1c(C)nn(C)c(=O)c1-c1c(-c2ccccc2OC(F)F)sc2cc(F)c(F)cc12 [5-022]
[1]; [29]
  Herbicidal effect by foliage application, H: barnyard grass: 3 (Herbicidal rate of 40% or more and less than 70%)
[2]; 272 g/ha
  herbicidal effect on barnyard grass (H): 4 (Herbicidal rate of 70% or more and less than 90%)
[3]; [29]
  Herbicidal effect by foliage application, I: wild oat: 0 (Herbicidal rate of 5% or less (almost no effect))
[4]; 272 g/ha
  herbicidal effect on rice flat sedge (E): 3 (Herbicidal rate of 40% or more and less than 70%)
[5]; [29]
  Herbicidal effect by foliage application, R: persian speedwell: 4 (Herbicidal rate of 70% or more and less than 90%)
[6]; [29]
  Herbicidal effect by foliage application, F: southern crabgrass: 4 (Herbicidal rate of 70% or more and less than 90%)
[7]; [29]
  Herbicidal effect by foliage application, K: Italian ryegrass: 0 (Herbicidal rate of 5% or less (almost no effect))
[8]; 272 g/ha
  herbicidal effect on Chinese sprangletop (D): 3 (Herbicidal rate of 40% or more and less than 70%)
[9]; [29]
  Herbicidal effect by foliage application, J: blackgrass: 1 (Herbicidal rate of 5% or more and less than 20%)
[10]; [29]
  Herbicidal effect by foliage application, M: velvetleaf: 5 (Herbicidal rate of 90% or more (almost completely withered))
[11]; [30]
  F: southern crabgrass, herbicidal effect grade: 1 (Herbicidal rate of 5% or more and less than 20%)
[12]; [30]
  L: windgrass, herbicidal effect grade: 0 (Herbicidal rate of 5% or less (almost no effect))
[13]; [29]
  Herbicidal effect by foliage application, P: chickweed: 5 (Herbicidal rate of 90% or more (almost completely withered))
[14]; [30]
  O: lambsquarters, herbicidal effect grade: 3 (Herbicidal rate of 40% or more and less than 70%)
[15]; [30]
  K: Italian ryegrass, herbicidal effect grade: 0 (Herbicidal rate of 5% or less (almost no effect))
[16]; [30]
  I: wild oat, herbicidal effect grade: 0 (Herbicidal rate of 5% or less (almost no effect))
[27]
  P: chickweed, herbicidal effect grade: 3 (Herbicidal rate of 40% or more and less than 70%)
[17]; [30]
  J: blackgrass, herbicidal effect grade: 0 (Herbicidal rate of 5% or less (almost no effect))
[18]; [29]
  Herbicidal effect by foliage application, G: green foxtail: 5 (Herbicidal rate of 90% or more (almost completely withered))
[19]; [30]
  H: barnyard grass, herbicidal effect grade: 0 (Herbicidal rate of 5% or less (almost no effect))
[20]; [29]
  Herbicidal effect by foliage application, N: redroot pigweed: 5 (Herbicidal rate of 90% or more (almost completely withered))
[22]; [30]
  R: persian speedwell, herbicidal effect grade: 3 (Herbicidal rate of 40% or more and less than 70%)
[23]; [30]
  M: velvetleaf, herbicidal effect grade: 3 (Herbicidal rate of 40% or more and less than 70%)
[24]; [30]
  N: redroot pigweed, herbicidal effect grade: 4 (Herbicidal rate of 70% or more and less than 90%)
[25]; [30]
  G: green foxtail, herbicidal effect grade: 3 (Herbicidal rate of 40% or more and less than 70%)
